Test results published in ChEMBL document CHEMBL1137634, “A cysteine protease inhibitor cures Chagas' disease in an immunodeficient-mouse model of infection” (2007).
Activity calls are given as the source filed them. The calls are words filed in the database; no cut-off is given here.

Legend:
[1] = test system: Trypanosoma cruzi; experiment: Antitrypanosomal activity against Trypanosoma cruzi CA1/72 infected in recombinase Rag1 deficient mouse assessed as survival from lethal infection at 50 mg/kg, ip twice daily for 27 days; format: functional; conditions: route intraperitoneal
[2] = test system: Trypanosoma cruzi; experiment: Antitrypanosomal activity against Trypanosoma cruzi CA1/72 infected in recombinase Rag1 deficient mouse assessed as protection against lethal acute Chaga's disease at 50 mg/kg, ip twice daily for 27 days; format: functional; conditions: route intraperitoneal
[3] = test system: Trypanosoma cruzi; experiment: Antitrypanosomal activity against Trypanosoma cruzi CA1/72 infected in recombinase Rag1 deficient mouse assessed as protection against colon infection at 50 mg/kg, ip twice daily for 27 days measured at 16 to 24 weeks postinfection by histopathology; format: functional, organism-based; design: dose 50 mg/kg
[4] = test system: Trypanosoma cruzi; experiment: Antitrypanosomal activity against Trypanosoma cruzi CA1/72 infected in recombinase Rag1 deficient mouse assessed as protection against heart infection at 50 mg/kg, ip twice daily for 27 days measured at 16 to 24 weeks postinfection by histopathology; format: functional, organism-based; design: dose 50 mg/kg
[5] = test system: Trypanosoma cruzi; experiment: Antitrypanosomal activity against Trypanosoma cruzi CA1/72 infected in recombinase Rag1 deficient mouse assessed as protection against liver infection at 50 mg/kg, ip twice daily for 27 days measured at 16 to 24 weeks postinfection by histopathology; format: functional, organism-based; design: dose 50 mg/kg
[6] = test system: Trypanosoma cruzi; experiment: Antitrypanosomal activity against Trypanosoma cruzi CA1/72 infected in recombinase Rag1 deficient mouse assessed as Trypanosoma-specific kinetoplast DNA in heart at 50 mg/kg, ip twice daily for 27 days by PCR; format: functional, organism-based; design: dose 50 mg/kg
[7] = test system: Trypanosoma cruzi; experiment: Antitrypanosomal activity against Trypanosoma cruzi CA1/72 infected in recombinase Rag1 deficient mouse assessed as protection against spleen infection at 50 mg/kg, ip twice daily for 27 days measured at 16 to 24 weeks postinfection by histopathology; format: functional, organism-based; design: dose 50 mg/kg
[8] = test system: Trypanosoma cruzi; experiment: Antitrypanosomal activity against Trypanosoma cruzi CA1/72 infected in immunocompetent C3HeB/FeJ mouse assessed as protection against lethal acute Chaga's disease at 50 mg/kg, ip twice daily for 27 days; format: functional; conditions: route intraperitoneal
[9] = test system: Trypanosoma cruzi; experiment: Antitrypanosomal activity against Trypanosoma cruzi CA1/72 infected in recombinase Rag1 deficient mouse assessed as Trypanosoma-specific kinetoplast DNA in liver at 50 mg/kg, ip twice daily for 27 days by PCR; format: functional, organism-based; design: dose 50 mg/kg
[10] = test system: Trypanosoma cruzi; experiment: Antitrypanosomal activity against Trypanosoma cruzi CA1/72 infected in recombinase Rag1 deficient mouse assessed as Trypanosoma-specific kinetoplast DNA in spleen at 50 mg/kg, ip twice daily for 27 days by PCR; format: functional, organism-based; design: dose 50 mg/kg
[11] = test system: Trypanosoma cruzi; experiment: Antitrypanosomal activity against Trypanosoma cruzi CA1/72 infected in recombinase Rag1 deficient mouse assessed as Trypanosoma-specific kinetoplast DNA in blood at 50 mg/kg, ip twice daily for 27 days by PCR; format: functional, organism-based; design: dose 50 mg/kg
[12] = test system: Trypanosoma cruzi; experiment: Antitrypanosomal activity against Trypanosoma cruzi CA1/72 infected in recombinase Rag1 deficient mouse assessed as protection against skeletal muscle infection at 50 mg/kg, ip twice daily for 27 days measured at 16 to 24 weeks postinfection by histopathology; format: functional, organism-based; design: dose 50 mg/kg; conditions: Muscle tissue
[13] = test system: Trypanosoma cruzi; experiment: Antitrypanosomal activity against Trypanosoma cruzi CA1/72 infected in recombinase Rag1 deficient mouse blood assessed as Trypanosoma-specific kinetoplast DNA in blood at 50 mg/kg, ip twice daily for 27 days measured after 80 to 160 days post-infection by PCR; format: functional, organism-based; design: dose 50 mg/kg

## CN1CCN(C(=O)N[C@@H](Cc2ccccc2)C(=O)N[C@H](/C=C/S(=O)(=O)c2ccccc2)CCc2ccccc2)CC1 [K-777]
[1]
  Survival: 150 days
[2]
  Activity: 60%
[3]
  Activity: Active
[4]
  Activity: Active
[5]
  Activity: Active
[6]
  Activity: Active
[7]
  Activity: Active
[8]
  Activity: 100%
[9]
  Activity: Active
[10]
  Activity: Active
[11]
  Activity: inactive
[12]
  Activity: Active
[13]
  Activity: Active
